Consider 28 compounds from patent US8450319B2, “Pyrrolopyridazinone compound” (Ube Industries, Ltd., priority 2006, dated 2013).

One data set has as its target PDE4. Description: Measurement of PDE4 enzyme inhibiting action. The data set is classed as biochemical, human. The note with it: PDE4 enzyme solution from polymorphonuclear leukocytes of healthy volunteer; 0.2 μM [3H]cAMP, 30° C., 30 minutes; read-out: PDE4 inhibition IC50 value. On the procedure: Preparation of a PDE4 enzyme solution was carried out according to the method of Cooper et al. (Br. J. Pharmacol., 126, 1863 (1999)) by modifying a part thereof. Heparin-treated peripheral blood from healthy volunteer was stratified by a blood cell separating solution (Polymorphprep™, available from AXIS-SHIELD PoC AS CO.), and centrifugation was carried out at 20° C. with 1900 rpm for 27 minutes to obtain polymorphonuclear leukocytes. The polymorphonuclear leukocytes were washed with a Hanks' balanced salt solution, then, a mixed solution comprising 70% of 10 mM 3-morpholinopropane sulfonic acid buffer solution (pH 7.4) containing 1 mM EGTA, 1 mM magnesium acetate and 5 mM dithiothreitol and 30% of ethylene glycol was added thereto to dissolve the same under ice-cooling, and the obtained cell dissolved solution was used as a PDE4 enzyme solution.
Measurement of PDE4 activity was carried out according to the method of Owens, et al. (Biochem. J., 326, 53 (1997)) by modifying a part thereof. The PDE4 enzyme solution was incubated with a compound to be tested dissolved in dimethylsulfoxide in 80 mM Tris-HCl buffer solution (pH 7.4) containing 0.2 μM [^3H] cAMP, 0.1 mM cGMP, 20 mM MgCl2 and 12 mM 2-mercaptoethanol at 30° C. for 30 minutes. Trifluoroacetic acid (final concentration: 1%) was added to the mixture to stop the reaction, and the reaction mixture was added to neutral alumina column (BOND ELUT™, available from VARIAN INC.). After the column was washed with 100 mM Tris-HCl buffer solution (pH 8.0), [^3H] 5′-AMP was eluted with 2N sodium hydroxide solution, and radioactivity of the eluent was measured by a liquid scintillation analyzer.
A concentration of the compound to be tested which inhibits 50% of PDE4 activity was calculated from the relation between the concentration of the compound to be tested which had been added and PDE4 activity as an IC50 value.

Structures can show the parent of a compound that is named as a salt.

For the compound `O=c1[nH]ncc2[nH]c(-c3ccc(OC(F)F)c(OCC4CC4)c3)c(Cl)c12` [Example 36, 3-Chloro-2-(3-cyclopropylmethoxy-4-difluoromethoxyphenyl)-1,5-dihydropyrrolo[2,3-d]pyridazin-4-one], the melting point was 258 to 260 °C. Besides, the half-maximal inhibitory concentration (IC50) on PDE4 was found to be 7.9 nM.
For `O=c1[nH]ncc2[nH]c(-c3ccc(OC(F)F)c(OC4CC4)c3)c(Br)c12` [Example 3, 3-Bromo-2-(3-cyclopropoxy-4-difluoromethoxyphenyl)-1,5-dihydropyrrolo[2,3-d]pyridazin-4-one], in that order: 267 to 270 °C (dec.) and 5.2 nM.
Taken in the same sequence, the figures for `CCCCCCc1c(-c2ccc(OC(F)F)c(OC3CC3)c2)[nH]c2cn[nH]c(=O)c12` [Example 69, 2-(3-Cyclopropoxy-4-difluoromethoxyphenyl)-3-hexyl-1,5-dihydropyrrolo[2,3-d]pyridazin-4-one] were 186 to 188 °C and 0.38 nM.
`O=c1[nH]ncc2[nH]c(-c3ccc(OC(F)F)c4c3CC3(CCCC3)O4)cc12` [Example 49, 2-(7-Difluoromethoxy-2,3-dihydrobenzofuran-2-spiro-1′-cyclopentan-4-yl)-1,5-dihydropyrrolo[2,3-d]pyridazin-4-one] gave a melting point of 290 to 295 °C. On PDE4, the concentration for half-maximal inhibition (IC50) is 3.5 nM.
For `O=c1[nH]ncc2[nH]c(-c3ccc(OC(F)F)c4c3C=CC(C3CC3)O4)cc12` (stereo not shown) [Example 58, 2-(2-Cyclopropyl-8-difluoromethoxy-2H-chromen-5-yl)-1,5-dihydropyrrolo[2,3-d]pyridazin-4-one], in that order: 232 to 242 °C and 36 nM.
Take `O=c1[nH]ncc2[nH]c(-c3ccc(OC(F)F)c(OC4CCC4)c3)c(-c3ccccc3)c12` [Example 34, 2-(3-Cyclobutoxy-4-difluoromethoxyphenyl)-3-phenyl-1,5-dihydropyrrolo[2,3-d]pyridazin-4-one]: the melting point was in the range of 280 to 284 °C. For the same compound, the IC50 at PDE4 was found to be 8.7 nM.
Take `CC(C)OCc1c(-c2ccc(OC(F)F)c(OC3CC3)c2)[nH]c2cn[nH]c(=O)c12` [Example 60, 2-(3-Cyclopropoxy-4-difluoromethoxyphenyl)-3-isopropoxymethyl-1,5-dihydropyrrolo[2,3-d]pyridazin-4-one]: the melting point was in the range of 196 to 197 °C. In addition, the concentration for half-maximal inhibition (IC50) on PDE4 is 3 nM.
For `CCCCc1c(-c2ccc(OC)c(OC3CC3)c2)[nH]c2cn[nH]c(=O)c12` [Example 44, 3-Butyl-2-(3-cyclopropoxy-4-methoxyphenyl)-1,5-dihydropyrrolo[2,3-d]pyridazin-4-one], in that order: 198 to 200 °C and 2.6 nM.
Taken in the same sequence, the figures for `CCOCCc1c(-c2ccc(OC(F)F)c(OC3CC3)c2)[nH]c2cn[nH]c(=O)c12` [Example 67, 2-(3-Cyclopropoxy-4-difluoromethoxyphenyl)-3-(2-ethoxyethyl)-1,5-dihydropyrrolo[2,3-d]pyridazin-4-one] were 201 to 203 °C and 1.4 nM.
Taken in the same sequence, the figures for `C#Cc1c(-c2ccc(OC(F)F)c(OC3CC3)c2)[nH]c2cn[nH]c(=O)c12` [Example 16, 2-(3-Cyclopropoxy-4-difluoromethoxyphenyl)-3-ethynyl-1,5-dihydropyrrolo[2,3-d]pyridazin-4-one] were > 300 °C and 13 nM.
Turning to `CCc1c(-c2ccc(OC(F)F)c(OCC3CC3)c2)[nH]c2cn[nH]c(=O)c12` [Example 37, 2-(3-Cyclopropylmethoxy-4-difluoromethoxyphenyl)-3-ethyl-1,5-dihydropyrrolo[2,3-d]pyridazin-4-one HCl adduct], at PDE4, the half-maximal inhibitory concentration (IC50) is 6.6 nM.
Regarding `CCCCc1c(-c2ccc(OC(F)F)c(OC3CC3)c2)[nH]c2cn[nH]c(=O)c12` [Example 8, 3-Butyl-2-(3-cyclopropoxy-4-difluoromethoxyphenyl)-1,5-dihydropyrrolo[2,3-d]pyridazin-4-one], the melting point fell in the range of 192 to 194 °C. Moreover, the IC50 at PDE4 was found to be 1.7 nM.
`CC1(C)C=Cc2c(-c3[nH]c4cn[nH]c(=O)c4c3Cl)ccc(OC(F)F)c2O1` [Example 52, 3-Chloro-2-(8-difluoromethoxy-2,2-dimethyl-2H-chromen-5-yl)-1,5-dihydropyrrolo[2,3-d]pyridazin-4-one] had a melting point of 226 to 234 °C. Moreover, the IC50 at PDE4 is 8 nM.
Turning to `CC(C)Oc1cc(-c2[nH]c3cn[nH]c(=O)c3c2Br)ccc1OC(F)F` [Example 41, 3-Bromo-2-(4-difluoromethoxy-3-isopropoxyphenyl)-1,5-dihydropyrrolo[2,3-d]pyridazin-4-one], the half-inhibitory concentration (IC50) at PDE4 was 9.9 nM.
`CC(C)Oc1cc(-c2cc3c(=O)[nH]ncc3[nH]2)ccc1OC(F)F` [Example 39, 2-(4-Difluoromethoxy-3-isopropoxyphenyl)-1,5-dihydropyrrolo[2,3-d]pyridazin-4-one] gave a melting point of 269 to 273 °C.
The compound `O=c1[nH]ncc2[nH]c(-c3ccc(OC(F)F)c(OCC4CC4)c3)cc12` [Example 35, 2-(3-Cyclopropylmethoxy-4-difluoromethoxyphenyl)-1,5-dihydropyrrolo[2,3-d]pyridazin-4-one] gave a melting point of 294 to 295 °C.
Still for that read-out and setting: to `COCc1c(-c2ccc(OC(F)F)c(OC3CC3)c2)[nH]c2cn[nH]c(=O)c12` [Example 11, 2-(3-Cyclopropoxy-4-difluoromethoxyphenyl)-3-methoxymethyl-1,5-dihydropyrrolo[2,3-d]pyridazin-4-one] belongs 104 to 107 °C; to `C=CCc1c(-c2ccc(OC(F)F)c(OC3CC3)c2)[nH]c2cn[nH]c(=O)c12` [Example 74, 2-(3-Cyclopropoxy-4-difluoromethoxyphenyl)-3-(2-propenyl)-1,5-dihydropyrrolo[2,3-d]pyridazin-4-one], 176 to 179 °C; to `COc1ccc(-c2[nH]c3cn[nH]c(=O)c3c2Cl)cc1OC(C)C` [Example 48, 3-Chloro-2-(3-isopropoxy-4-methoxyphenyl)-1,5-dihydropyrrolo[2,3-d]pyridazin-4-one], 291 to 299 °C.
Still for that read-out and setting: with `Cc1c(-c2ccc(OC(F)F)c(OC3CC3)c2)[nH]c2cn[nH]c(=O)c12` [Example 4, 2-(3-Cyclopropoxy-4-difluoromethoxyphenyl)-3-methyl-1,5-dihydropyrrolo[2,3-d]pyridazin-4-one] the figure was 245 to 246 °C.
Same read-out and setting: with `CC(C)c1c(-c2ccc(OC(F)F)c(OC3CC3)c2)[nH]c2cn[nH]c(=O)c12` [Example 7, 2-(3-Cyclopropoxy-4-difluoromethoxyphenyl)-3-isopropyl-1,5-dihydropyrrolo[2,3-d]pyridazin-4-one] the figure was 265 to 267 °C.
For the compound `Cc1c(-c2ccc(OC(F)F)c3c2C=CC(C)(C)O3)[nH]c2cn[nH]c(=O)c12` (as salt: HCl) [Example 53, 2-(8-Difluoromethoxy-2,2-dimethyl-2H-chromen-5-yl)-3-methyl-1,5-dihydropyrrolo[2,3-d]pyridazin-4-one HCl adduct], the melting point was > 300 °C.
Take `Cc1c(-c2ccc(OC(F)F)c3c2C=CC(C)(C)O3)[nH]c2cn[nH]c(=O)c12` [Example 53, 2-(8-Difluoromethoxy-2,2-dimethyl-2H-chromen-5-yl)-3-methyl-1,5-dihydropyrrolo[2,3-d]pyridazin-4-one HCl adduct]: at PDE4, the IC50 was 17 nM.
Same read-out and setting: to `O=c1[nH]ncc2[nH]c(-c3ccc(OC(F)F)c(OC4CC4)c3)c(C(O)c3ccccc3)c12` (stereo not shown) [Example 20, 2-(3-Cyclopropoxy-4-difluoromethoxyphenyl)-3-hydroxyphenylmethyl-1,5-dihydropyrrolo[2,3-d]pyridazin-4-one] belongs 0.23 nM.
For `CCCCCc1c(-c2ccc(OC(F)F)c(OC3CC3)c2)[nH]c2cn[nH]c(=O)c12` [Example 68, 2-(3-Cyclopropoxy-4-difluoromethoxyphenyl)-3-pentyl-1,5-dihydropyrrolo[2,3-d]pyridazin-4-one], the melting point was 191 to 193 °C.
On the same count and under the same terms, with `CCC(CC)OCc1c(-c2ccc(OC(F)F)c(OC3CC3)c2)[nH]c2cn[nH]c(=O)c12` [Example 65, 2-(3-Cyclopropoxy-4-difluoromethoxyphenyl)-3-(1-ethylpropoxymethyl)-1,5-dihydropyrrolo[2,3-d]pyridazin-4-one] the figure was 133 to 162 °C.
Still for that read-out and setting: with `O=c1[nH]ncc2[nH]c(-c3ccc(OC(F)F)c(OC4CC4)c3)c(CCc3ccccc3)c12` [Example 21, 2-(3-Cyclopropoxy-4-difluoromethoxyphenyl)-3-phenethyl-1,5-dihydropyrrolo[2,3-d]pyridazin-4-one] the figure was 199 to 201 °C; with `CC(C)Oc1cc(-c2[nH]c3cn[nH]c(=O)c3c2Cl)ccc1OC(F)F` [Example 40, 3-Chloro-2-(4-difluoromethoxy-3-isopropoxyphenyl)-1,5-dihydropyrrolo[2,3-d]pyridazin-4-one], 248 to 262 °C.

In general, IC50 refers to the midpoint of a concentration-inhibition curve. The melting point is the temperature, or range, at which the solid turns liquid.
